“Also recorded” adds a separate entry of the source. Where two headings read alike, the source gives them in different places.
Legend:
[1] = system: glutamic acid oxidase (known enzyme); settings: cited from earlier work
[2] = biological target: T1, immobilized L-glutamic acid oxidase (Streptomyces sp, UniProt Q8L3C7); test: Responses of the L-glutamic acid sensor of Example C1 to various amino acids; format: biochemical, Streptomyces sp. X-119-6; settings: pH 5.5, read-out: Relative response (%)
T1 construct: from the cultured product of an actinomycete newly isolated from a soil sample; made in house; host or cells: cultured product of the natural (non-recombinant) actinomycete strain; immobilized on a Cellophane membrane with glutaraldehyde
T1 sequence (Q8L3C7 15-390 limits assumed): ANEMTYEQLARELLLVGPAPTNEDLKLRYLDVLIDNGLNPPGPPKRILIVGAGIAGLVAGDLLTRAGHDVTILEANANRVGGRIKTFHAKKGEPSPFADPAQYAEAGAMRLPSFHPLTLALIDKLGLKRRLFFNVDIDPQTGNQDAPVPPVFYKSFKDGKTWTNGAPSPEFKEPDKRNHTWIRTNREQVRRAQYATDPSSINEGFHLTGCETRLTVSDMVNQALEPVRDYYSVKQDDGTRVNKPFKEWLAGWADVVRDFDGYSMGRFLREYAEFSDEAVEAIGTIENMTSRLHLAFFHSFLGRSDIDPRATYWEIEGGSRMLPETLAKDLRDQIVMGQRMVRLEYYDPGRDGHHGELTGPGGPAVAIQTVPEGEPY
T1 sequence (Q8L3C7 391-520 limits assumed): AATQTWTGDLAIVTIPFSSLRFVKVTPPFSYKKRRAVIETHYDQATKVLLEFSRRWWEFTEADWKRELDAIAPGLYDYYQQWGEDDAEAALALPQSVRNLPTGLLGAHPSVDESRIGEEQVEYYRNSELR
T1 sequence (Q8L3C7 521-701 limits assumed): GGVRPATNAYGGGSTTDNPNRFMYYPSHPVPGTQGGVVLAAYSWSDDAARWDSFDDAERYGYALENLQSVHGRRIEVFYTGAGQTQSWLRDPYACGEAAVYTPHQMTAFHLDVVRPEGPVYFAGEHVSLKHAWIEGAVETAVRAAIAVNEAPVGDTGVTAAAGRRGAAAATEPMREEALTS
Experimental: In FIG. 18, the sample solution 2 injected through inlet 1 is transferred by a peristaltic pump 4 together with oxygen saturated buffer 3 into a cell 5.
The results obtained by the measurement are shown as relative responses. The reaction was carried out in 0.1M of acetic acid-sodium acetate buffer at pH 5.5 and 30° C.

[3] = biological target: T2, novel L-glutamic acid oxidase (Streptomyces sp, UniProt Q8L3C7); test: Substrate specificity of the novel enzyme, oxygen electrode method
T2 sequence (Q8L3C7 15-390 limits assumed): T1 sequence (Q8L3C7 15-390 limits assumed)
T2 sequence (Q8L3C7 391-520 limits assumed): T1 sequence (Q8L3C7 391-520 limits assumed)
T2 sequence (Q8L3C7 521-701 limits assumed): T1 sequence (Q8L3C7 521-701 limits assumed)
Experimental: The concentration of each substrate was 10 mM, and the reactions were carried out at pH 7.4 (0.1 M potassium phosphate buffer) and pH 6.0 (0.1 M acetate buffer).
That is, 1 ml of 0.1 M potassium phosphate buffer (pH 7.4) containing 10 mM sodium L-glutamate was charged into an oxygen electrode cell and 10 μl of an enzyme solution was added thereto to measure the oxygen consumption rate. One unit of enzyme was determined as the amount of enzyme which consumes 1μ mol of oxygen per minute at 30° C. in the absence of catalase (unit: hereinafter abbreviated as "U").

[4] = system: glutamic acid oxidase (known enzyme); settings: cited from earlier work; remark: listed apart in the source
[5] = biological target: T2, novel L-glutamic acid oxidase; test: Effects of various additives on the activity of the novel enzyme; format: biochemical, Streptomyces sp. X-119-6; set-up: from the cultured product of an actinomycete newly isolated from a soil sample; made in house; host or cells: cultured product of the natural (non-recombinant) actinomycete strain, purified; settings: additive 1 mM, pH 7.4

With `[Cu+]` [copper ions] as the molecule, how does the “inhibition of the known enzyme (in words)” value [1] read?
Its value is “Substantially completely inhibited; also recorded: markedly inhibited”.

With mercury ions as the molecule, how does the “inhibition of the known enzyme (in words)” value [1] read?
Its value is “Substantially completely inhibited”.

Which activity at 2000 µM [2] does the source give for `NC(=O)CC[C@H](N)C(=O)O` [L-Glutamine] here?
The activity at 2000 µM was less than 2%.

And the activity at 10000 µM ([3]; pH 6, read-out: Relative Activity (%) pH 6.0, substrate 10 mM, pH 6.0 (0.1 M acetate buffer), relative to L-glutamic acid)?
The activity at 10000 µM was less than 0.1%.

And the “activity of the novel enzyme (in words)” value ([3]; pH 7.4)?
Its value is “substantially no activity”.

What about the activity at 10000 µM ([3]; pH 7.4, read-out: Relative Activity (%) pH 7.4, substrate 10 mM, pH 7.4 (0.1 M potassium phosphate buffer), relative to L-glutamic acid) of the same molecule?
The activity at 10000 µM was less than 0.1%.

And the “activity of the known enzyme” value ([4]; relative to L-glutamic acid)?
The value was 8.4%.

And the “relative activity of the known enzyme” value ([4]; velocity of enzymatic reaction for L-glutamic acid given as 100)?
The value was 8.4.

Which “inhibition of the activity of the novel enzyme (in words)” value [5] does the source give for `[Cl][Cu][Cl]` [CuCl2, cupric chloride] here?
Its value is “not inhibited at all”.

What about the “inhibition of the known enzyme (in words)” value [1] of the same molecule?
The value was “completely inhibited”.
